Laboratory results: patent US6592545B1, “Particle delivery” (PowderJect Research Limited, priority 1994, dated 2003)
Where a name gives a salt, the structure may show the parent alone.

Key:
oral mucosa [1] = assay: Visual assessment of oral mucosa delivery sites for damage or irritation after needleless syringe delivery; format: in vivo, human; conditions: single 3 mg dose, particles 38-53 μm, 14 subjects, 24-48 hours after delivery
Method: A randomized, double-blind, negatively controlled study was carried out in normal, healthy human subjects as follows. Initially, a single 3 mg dose of lignocaine HCL particles sized between 38 and 53 μm was delivered from a needleless syringe constructed in accordance with the invention. The lignocaine was delivered to the oral mucosa adjacent to the number 12 and 22 lateral incisors in 14 trial subjects. The delivery sites were then visually assessed for evidence of damage or irritation to the mucosal tissues.

[2] = in vivo
Method: In a second study, a single 3.0 mg dose of lignocaine HCL particles (as above) was delivered using a needleless syringe, and a single 0.2 mL dose of 2% lignocaine HCL was delivered via needle-syringe injection. Pain associated with the administration of each treatment was scored in all 14 subjects using a 100 mm visual analogue scale immediately after each treatment, wherein 100% indicates a painful treatment, and 0% indicates a pain-free treatment. The needleless syringe employed in the study was operated using 40 bar helium driving gas to expel anaesthetic particles from a flexible, eversible dome-shaped membrane comprised of a 400 μm, 6 mm polyurethane film.

oral mucosa [3] = assay: Local anaesthesia: pain response to probing oral mucosa with back of 27G dental needle, visual analogue scale; format: in vivo, human; conditions: 3.0 mg particles via needleless syringe; probe of treated area 1 minute post delivery; untreated 55.6%, placebo 30.6%
Method: A randomized, double-blind study was then carried out as follows. Treatments were given to 14 subjects over the course of three visits. The treatments provided to the subjects in each visit were either a single 3.0 mg dose of Lignocaine HCL particles from the above-described needleless syringe device, or 0.0 mg (as a blinded negative control). Accordingly, treatments provided over the course of the three visits were either: two actual (3.0 mg) doses of the anaesthetic particles and one placebo; or two placebos and one actual (3.0 mg) dose. Pain stimulus was provided by probing oral mucosa with the back of a 27G dental needle, wherein the probe sequence was a probe on an untreated area of the mucosa, and then a probe on the treated area of the mucosa 1 minute post delivery. Again, the pain associated with the probe of the untreated and treated areas was scored on visual analogue scales using the above scoring methods immediately after each probe.

[4] = Serum testosterone pharmacokinetics after subcutaneous or OralJect transmucosal delivery (radioimmunoassay); format: in vivo, New Zealand White rabbit; conditions: for Cmax: mean
Method: Testosterone (Sigma Chemicals) was milled and sieved into a particle size range (approximately 50-100 μm) suitable for transmucosal delivery from a needleless syringe using standard stainless steel mesh sieves. Female New Zealand White rabbit subjects weighing between 2.2-2.8 kg were used and allowed food and water ad libitum. The rabbits (n=8) were randomly assigned to one of two treatment groups. The first treatment group received testosterone (2.0 mg dose) as a suspension in 35% polyvinylpyrrolidone C-30 in water (6 mg/g testosterone concentration) via subcutaneous injection. The second treatment group received testosterone (2.0 mg dose of testosterone particles ranging from 53-75 μm) as two 1.0 mg transmucosal administrations from an OralJect™ needleless syringe device abutted against the cheek mucosa.
Whole blood (1.0 ml) was taken at times 0, 0.5, 1, 2, 4, 6, 8, 12, 24 and 48 hours, the serum aspirated and assayed for testosterone by radioimmunoassay (DPC). The OralJect™ device is a prototype device of the present invention that is actuated by helium at 40 bar.

[5] = oral administration, degraded by the liver; cited from earlier work

With `CCN(CC)CC(=O)Nc1c(C)cccc1C` [lignocaine HCL] the “tissue reaction at delivery sites” value (oral mucosa [1]) was “no evidence of any tissue reaction”, the “pain associated with administration, mean visual analogue score” value [2] was 49.9% and the “mean pain response score to probe” value (oral mucosa [3]) was 15.0%.

For `C[C@]12CC[C@H]3[C@@H](CCC4=CC(=O)CC[C@@]43C)[C@@H]1CC[C@@H]2O` [testosterone, Testosterone], the Cmax ([4]; OralJect transmucosal (cheek mucosa), 2 x 1.0 mg particles 53-75 μm, rabbit serum) was 25.5 ± 3.5 nmol/I, the “second minor peak of serum testosterone, time post administration” value ([4]; OralJect transmucosal, possible depot effect) was 12 h and the bioavailability ([4]; female, New Zealand White, rabbit, serum, 2 mg, OralJect transmucosal, 2.0 mg, rabbit, read-out: % BA (% bioavailability)) was roughly 48.3%. The Tmax ([4]; female, New Zealand White, rabbit, serum, OralJect transmucosal, 2.0 mg, all animals) was 30 min, the Cmax ([4]; subcutaneous injection, 2.0 mg suspension in 35% polyvinylpyrrolidone C-30, rabbit serum) was 34.8 ± 6.9 nmol/I and the Cmax range ([4]; subcutaneous injection, 2.0 mg, rabbit serum) was 26.9 − 55.2 nmol/I. The first pass degradation [5] was 98%.
